Structures can show the parent of a compound that is named as a salt.
Experiments:
NDM-1 = target: T1, NDM-1 (Klebsiella pneumoniae, UniProt C7C422); experiment: Dose rate inhibition studies for IC50 determination, NDM-1 enzymatic assay; assay type: biochemical; conditions: Enzyme IC50 NDM-1, 10 nM NDM-1, 100 μM ZnCl2, imipenem substrate, inhibitor 0-800 μM, 3 parallel measurements; N.I. = no enzyme inhibitory activity observed
T1 construct: made in house
Experimental: (§1) The […] synthesized compounds 5a–l were tested for their inhibitory activities against NDM-1, VIM-2 (Table 1), and GIM-1 in an in vitro enzymatic assay (ESI ^†).[41] The inhibitory activity was measured using enzyme concentrations of 0.1 nM VIM-2, 10 nM NDM-1 or 1 nM GIM-1, with an excess Zn(II) (100 μM, see Experimental methods), with inhibitor compounds with concentrations from 0 to 800 μM. Each data point was measured in triplicates. […] This is in line with previous reports.[42,43]
(§2) A 100 μl solution with buffer (50 mM HEPES (pH 7.2), 100 μM ZnCl2, 2.5% DMSO), purified enzyme (0.1 nM VIM-2, 10 nM NDM-1 or 1 nM GIM-1) and 800–0 μM inhibitor was incubated in a 96 well plate at 25 °C for 5 min. In addition, the enzyme buffer contained 400 μg ml^−1 bovine serum albumin (BSA) to prevent protein unfolding and loss of activity due to low concentrations.[67,68] 100 μM of the reporter substrate nitrocefin (VIM-2, GIM-1) or imipenem (NDM-1) was added to the enzyme–inhibitor solution and the increase in absorbance at 482 nm (nitrocefin) or 300 nm (imipenem) was recorded on a Spectramax M4 spectrophotometer (Molecular Devices). Each data point was performed in triplicates and the initial velocity for each inhibitor concentration was analyzed by a log [inhibitor] vs. response curve fitting to calculate IC50 in GraphPad Prism 9.2 software.

VIM-2 = target: T2, VIM-2 (Escherichia coli, UniProt Q5U7L7); experiment: Dose rate inhibition studies for IC50 determination, VIM-2 enzymatic assay; assay type: biochemical; conditions: Enzyme IC50 VIM-2, 0.1 nM VIM-2, 100 μM ZnCl2, nitrocefin substrate, inhibitor 0-800 μM, 3 parallel measurements; N.I. = no enzyme inhibitory activity observed
T2 construct: made in house
Experimental: as §1, §2

15N-labelled NDM-1 = target: T3, 15N-labelled NDM-1 (Klebsiella pneumoniae, UniProt C7C422); experiment: 1H,15N HSQC NMR chemical shift perturbation titration, NDM-1; assay type: binding
T3 construct: made in house
Experimental: (§3) Solution NMR spectroscopy is a powerful tool to assess protein–ligand interactions under close to physiological conditions.[47] We, therefore, performed NMR chemical shift perturbation (CSP, for details, see section S8, ESI ^†) experiments to identify the amino acid residues of NDM-1 and VIM-2 that are involved in inhibitor binding, making use of the previously published protein assignments.[48,49] Titrations were conducted using ^15N-labelled proteins with 0, 0.5, 1, 2, 4, 8, and 16 equiv. of 5 inhibitors for NDM-1 and of 7 inhibitors for VIM-2.
(§4) For the titrations, ^15N-labelled NDM-1 and ^15N-labelled VIM-2 (250 μM), and titrated ligands (0.5 equiv. in 1 μL) were prepared in the same buffer as the protein (20 mM KPO4, 0.1 mM ZnCl2, pH 7.0 with 10% D2O and 2.5% DMSO-d6). ^1H,^15N HSQC spectra were acquired with 128 × 1024 complex points (F1 × F2) and spectral width of 9090 × 2740 Hz on ^15N-labeled NDM-1/VIM-2 and with every titration step up to 1 : 16 ratio between protein : ligand (0, 0.5, 1, 2, 4, 8, and 16 equiv. of ligand). All experiments were recorded on a Bruker 600 MHz spectrometer at 310 K equipped with a 5 mm TCI cryogenic probe. The NMR data were processed on the MestReNova software with the Mnova Binding plugin. The weighted average chemical shift perturbations (CSP) for the backbone amides were calculated from the observed chemical shift differences in the proton and nitrogen dimensions using the equation (chemical shift scaling factors: FH = 1, FN = 0.156) CSP = Δδ1H,15N = [drawing 13] .
(§5) 7. Chemical shift perturbation histograms
(§6) Chemical shift perturbation was calculated according equation (1) 2
(§7) CSP = Δδ(1H,15N) = √(Δδ1H2 + (1⁄R × Δδ15N2) Rscale = 6.5 (1)
(§8) Where Δδ1H is the chemical shift change for proton dimension, Δδ15N is the chemical shift change for nitrogen dimension, Rscale is a
(§9) The chemical shift perturbations (CSP) were classified as significant (SSP) when the observed Δδ(1H,15N) was greater than the population
(§10) mean plus the standard deviation (µ+1σ) – solid line; (µ+2σ) – dashed line, and (µ+3σ) – dashed line.
(§11) Further on, Kd was calculated according: 3
(§12) ([P]+[L]+Kd)− √([P]+[L]+Kd)2−4[P][L]
(§13) ΔδmaxΔδobs = Δδmax 2[P] (2)
(§14) Where Kd is the dissociation constant, [P] and [L] are protein and ligand concentrations, respectively. Δδmax were estimated in
(§15) MestReNova by extrapolation of the obser ved chemical shift differences Δδobs.

15N-labelled VIM-2 = target: T4, 15N-labelled VIM-2 (Escherichia coli, UniProt Q5U7L7); experiment: 1H,15N HSQC NMR chemical shift perturbation titration, VIM-2; assay type: binding; conditions: VIM-2 Kd, 0-16 equiv. ligand, pH 7.0, 310 K
T4 construct: made in house
Experimental: as §3, §4, §5, §6, §7, §8, §9, §10, §11, §12, §13, §14, §15

T3 sequence (C7C422 29-270 limits assumed): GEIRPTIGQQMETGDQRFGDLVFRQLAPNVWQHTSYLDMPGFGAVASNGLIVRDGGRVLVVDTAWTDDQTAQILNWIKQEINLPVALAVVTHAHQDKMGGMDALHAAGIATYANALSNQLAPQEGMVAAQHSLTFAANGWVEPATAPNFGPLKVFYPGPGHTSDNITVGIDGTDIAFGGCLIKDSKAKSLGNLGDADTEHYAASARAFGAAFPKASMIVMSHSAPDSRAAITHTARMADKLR
T1 sequence (C7C422 29-270 limits assumed): as above

O=C(NC(C1CCCCN1)P(=O)(O)O)c1ccsc1 (centres unmarked) [Compound 5c-1, (Piperidin-2-yl(thiophene-3-carboxamido)methyl)phos-phonic acid hydrochloride]
IC50 (NDM-1): 0.219 ± 0.014 mM
IC50 (VIM-2): 0.033 ± 0.003 mM
Kd (15N-labelled NDM-1; Estimated binding constant (Kd), residue 070F, Table S5, per-residue fit, NDM-1 070F): 15.2 mM
Kd (15N-labelled NDM-1; Estimated binding constant (Kd), residue 091T, Table S5, per-residue fit, NDM-1 091T): 4.17 mM
Kd (15N-labelled NDM-1; Estimated binding constant (Kd), residue 108E, Table S5, per-residue fit, NDM-1 108E): 4.5 mM
Kd (15N-labelled NDM-1; Estimated binding constant (Kd), residue 119T, Table S5, per-residue fit, NDM-1 119T): 10.7 mM
Kd (15N-labelled NDM-1; Estimated binding constant (Kd), residue 123Q, Table S5, per-residue fit, NDM-1 123Q): 1.69 mM
Kd (15N-labelled NDM-1; Estimated binding constant (Kd), residue 124D, Table S5, per-residue fit, NDM-1 124D): 5.76 mM
Kd (15N-labelled NDM-1; Estimated binding constant (Kd), residue 127G, Table S5, per-residue fit, NDM-1 127G): 10.8 mM
Kd (15N-labelled NDM-1; Estimated binding constant (Kd), residue 143A, Table S5, per-residue fit, NDM-1 143A): 8.49 mM
Kd (15N-labelled NDM-1; Estimated binding constant (Kd), residue 149A, Table S5, per-residue fit, NDM-1 149A): 1.76 mM
Kd (15N-labelled NDM-1; Estimated binding constant (Kd), residue 152E, Table S5, per-residue fit, NDM-1 152E): 3.85 mM
Kd (15N-labelled NDM-1; Estimated binding constant (Kd), residue 159H, Table S5, per-residue fit, NDM-1 159H): 11.7 mM
Kd (15N-labelled NDM-1; Estimated binding constant (Kd), residue 160S, Table S5, per-residue fit, NDM-1 160S): 5.4 mM
Kd (15N-labelled NDM-1; Estimated binding constant (Kd), residue 188G, Table S5, per-residue fit, NDM-1 188G): 15.8 mM
Kd (15N-labelled NDM-1; Estimated binding constant (Kd), residue 191S, Table S5, per-residue fit, NDM-1 191S): 0.48 mM
Kd (15N-labelled NDM-1; Estimated binding constant (Kd), residue 194I, Table S5, per-residue fit, NDM-1 194I): 6.26 mM
Kd (15N-labelled NDM-1; Estimated binding constant (Kd), residue 197G, Table S5, per-residue fit, NDM-1 197G): 1.51 mM
Kd (15N-labelled NDM-1; Estimated binding constant (Kd), residue 205F, Table S5, per-residue fit, NDM-1 205F): 3.19 mM
Kd (15N-labelled NDM-1; Estimated binding constant (Kd), residue 206G, Table S5, per-residue fit, NDM-1 206G): 3.95 mM
Kd (15N-labelled NDM-1; Estimated binding constant (Kd), residue 211K, Table S5, per-residue fit, NDM-1 211K): 10 mM
Kd (15N-labelled NDM-1; Estimated binding constant (Kd), residue 213S, Table S5, per-residue fit, NDM-1 213S): 9.53 mM
Kd (15N-labelled NDM-1; Estimated binding constant (Kd), residue 214K, Table S5, per-residue fit, NDM-1 214K): 6.4 mM
Kd (15N-labelled NDM-1; Estimated binding constant (Kd), residue 217S, Table S5, per-residue fit, NDM-1 217S): 11.8 mM
Kd (15N-labelled NDM-1; Estimated binding constant (Kd), residue 228H, Table S5, per-residue fit, NDM-1 228H): 17.9 mM
Kd (15N-labelled NDM-1; Estimated binding constant (Kd), residue 229Y, Table S5, per-residue fit, NDM-1 229Y): 6.74 mM
Kd (15N-labelled NDM-1; Estimated binding constant (Kd), residue 230A, Table S5, per-residue fit, NDM-1 230A): 11.5 mM
Kd (15N-labelled NDM-1; Estimated binding constant (Kd), residue 232S, Table S5, per-residue fit, NDM-1 232S): 10.2 mM
Kd (15N-labelled NDM-1; Estimated binding constant (Kd), residue 248M, Table S5, per-residue fit, NDM-1 248M): 36.6 mM
Kd (15N-labelled NDM-1; Estimated binding constant (Kd), residue 249S, Table S5, per-residue fit, NDM-1 249S): 4.15 mM
Kd (15N-labelled NDM-1; Estimated binding constant (Kd), residue 251S, Table S5, per-residue fit, NDM-1 251S): 15.4 mM
Kd (15N-labelled NDM-1; Estimated binding constant (Kd), residue 254D, Table S5, per-residue fit, NDM-1 254D): 5.56 mM
Kd (15N-labelled NDM-1; Estimated binding constant (Kd), residue 255S, Table S5, per-residue fit, NDM-1 255S): 10.6 mM
Kd (15N-labelled NDM-1; NDM-1 Kd, NMR chemical shift perturbation, 0-16 equiv. ligand, pH 7.0, 310 K): 3.1 ± 0.3 mM
Kd (15N-labelled VIM-2): 0.4 ± 0.03 mM

From PMC10650955, “α-Aminophosphonate inhibitors of metallo-β-lactamases NDM-1 and VIM-2” (RSC Medicinal Chemistry, 2023)
